Laboratory results from US7790711B2, “Inhibitors of 11β-Hydroxysteroid Dehydrogenase” (Hoffmann-La Roche Inc., priority 2007, dated 2010).

Biological target: T1, human 11betaHSD1 (Homo sapiens, UniProt P28845)
T1 construct: stably transfected with full-length human 11betaHSD1 cDNA; expressed in transfected cells
Experiment: in vitro inhibition of 11β-HSD1 in H4IIE cells stably transfected with human 11betaHSD1 (cortisone to cortisol, ELISA)
Assay type: cell-based
Settings: H4IIE cells stably transfected with full-length human 11betaHSD1 cDNA; 200 nM cortisone, 2 hours at 37° C.; cortisol by competitive ELISA
Method: H4IIE cells stably transfected with full-length human 11betaHSD1 cDNA were propagated and expanded in DMEM high glucose media (Invitrogen Cat# 11995-065), supplemented with 10% FCS (Invitrogen Cat# 10082-147), 100 units/mL and 100 μg/mL pen/strep (Invitrogen Cat#15140-122), and geneticin (800 μg/mL). One day prior to assay, cells were released from flasks using trypsin/EDTA, centrifuged, and washed with plating media (DMEM high glucose, without phenol red; Invitrogen Cat# 21063-029, supplemented with 2% charcoal stripped FCS; Gemini Cat# 100-119). From a 500,000 cells/mL suspension in plating media, 200 μL of cells were seeded into each well of a 96-well coated plate (BioCoat Cat#356461) and cultured overnight at 37° C. The following day, serially diluted 11betaHSD1 inhibitor compounds dissolved in DMSO were added to DMEM with BSA (2 mg/mL final). The final DMSO concentration was 1%. Media was aspirated from plates, and compounds in media were added to each well. The plates were incubated at 37° C. for 1 hour to allow for cellular uptake of compounds. 10 μL of substrate (cortisone) was then added to each well (200 nM final concentration) and incubated for 2 hours at 37° C. Plates were then transferred to ice and 80 μL of media transferred to a 96-well plate and stored at −30° C.
Quantitation of cortisol in cell media was performed by competitive ELISA using ELISA-Light (Tropix Cat# T10206/EL100S4), anti-cortisol EIA antibody (Assay Designs, Inc. Cat#80-1148), and cortisol-enzyme conjugate (Assay Designs, Inc. Cat# 80-1147). 384-well plates (Falcon Cat#353988) were precoated with anti-mouse IgG (Sigma Cat# M-1397) suspended in 0.9% NaCl (5 mg/mL), 50 μL per well, overnight at 4° C. Plates were washed with PBS, 0.1% Tween-20, then washed with PBS alone. Plates were blocked with Blocking Buffer (Tropix Cat# AI075) for 2 hours at room temperature. The plates were then washed as previously described. Assay samples were thawed, diluted 1:8 in DMEM, 2 mg/mL BSA, 1% DMSO, and 24 μL was transferred to wells of a pre-coated 384-well plate, as well as varying amounts of cortisol standard. To each well, 12 μL of cortisol-conjugate and 12 μL of anti-cortisol EIA antibody were added and incubated 2 hrs at room temperature on a orbital plate shaker. The wells were then emptied by inversion, then washed three times with 100 μL of PBS, 0.05% Tween-20, and then 2 times with 100 μL of Assay Buffer (Tropix). 60 μL of CDP-STAR (Tropix) was added to each well and incubated 10 minutes at room temperature. Chemiluminescence was measured using a Victor V Reader (Perkin Elmer). Cortisol in each sample was interpolated from a standard curve generated with known amounts of cortisol. IC50 values were calculated using the curve fitting software XLFit4 (IDBS).

T1 sequence (P28845 whole entry): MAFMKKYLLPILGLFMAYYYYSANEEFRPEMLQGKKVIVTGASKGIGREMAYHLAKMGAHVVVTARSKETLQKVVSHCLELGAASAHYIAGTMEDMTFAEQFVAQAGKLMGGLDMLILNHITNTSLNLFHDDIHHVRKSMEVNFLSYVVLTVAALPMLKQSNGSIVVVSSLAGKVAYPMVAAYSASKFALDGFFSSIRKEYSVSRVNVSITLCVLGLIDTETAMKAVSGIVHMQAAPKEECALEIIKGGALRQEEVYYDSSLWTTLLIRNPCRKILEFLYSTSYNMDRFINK

| Compound | IC50 [nM] |
| --- | --- |
| CC(C)Nc1c(C(=O)NC2C3CC4CC(C3)CC2C4)cnn1-c1ccccc1 (stereo not drawn) [Example 1, 5-Isopropylamino-1-phenyl-1H-pyrazole-4-carboxylic acid adamantan-2-ylamide] | 1.3 |
| O=C(NC1C2CC3CC(C2)CC1C3)c1cnn(-c2ccccc2)c1NCc1ccccc1 (stereo not drawn) [Example 2, 5-Benzylamino-1-phenyl-1H-pyrazole-4-carboxylic acid adamantan-2-ylamide] | 14 |
| O=C(NC1C2CC3CC(C2)CC1C3)c1cnn(-c2ccccc2)c1NCc1cccnc1 (stereo not drawn) [Example 3, 1-Phenyl-5-[(pyridin-3-ylmethyl)-amino]-1H-pyrazole-4-carboxylic acid adamantan-2-ylamide] | 350 |
| O=C(NC1C2CC3CC(C2)CC1C3)c1cnn(-c2ccccc2)c1NCC1CC1 (stereo not drawn) [Example 4, 5-(Cyclopropylmethyl-amino)-1-phenyl-1H-pyrazole-4-carboxylic acid adamantan-2-ylamide] | 1.9 |
| O=C(NC1C2CC3CC(C2)CC1C3)c1cnn(-c2ccccc2)c1NC1CCCCC1 (stereo not drawn) [Example 5, 5-Cyclohexylamino-1-phenyl-1H-pyrazole-4-carboxylic acid adamantan-2-ylamide] | 4.7 |
| O=C(NC1C2CC3CC(C2)CC1C3)c1cnn(-c2ccccc2)c1NC1CCC1 (stereo not drawn) [Example 6, 5-Cyclobutylamino-1-phenyl-1H-pyrazole-4-carboxylic acid adamantan-2-ylamide] | 7.6 |
| CC1CCC(C)N1c1c(C(=O)NC2C3CC4CC(C3)CC2C4)cnn1-c1ccccc1 (stereo not drawn) [Example 7, 5-(2,5-Dimethyl-pyrrolidin-1-y1)-1-phenyl-1H-pyrazole-4-carboxylic acid adamantan-2-ylamide] | 4 |
| CC1CCCN1c1c(C(=O)NC2C3CC4CC(C3)CC2C4)cnn1-c1ccccc1 (stereo not drawn) [Example 8, 5-(2-Methyl-pyrrolidin-1-y1)-1-phenyl-1H-pyrazole-4-carboxylic acid adamantan-2-ylamide] | 1.3 |
| CC1CCCN(c2c(C(=O)NC3C4CC5CC(C4)CC3C5)cnn2-c2ccccc2)C1 (stereo not drawn) [Example 9, 5-(3-Methyl-piperidin-1-y1)-1-phenyl-1H-pyrazole-4-carboxylic acid adamantan-2-ylamide] | 3 |
| CN(Cc1ccccc1)c1c(C(=O)NC2C3CC4CC(C3)CC2C4)cnn1-c1ccccc1 (stereo not drawn) [Example 10, 5-(Benzyl-methyl-amino)-1-phenyl-1H-pyrazole-4-carboxylic acid adamantan-2-ylamide] | 9.1 |
| CN(CCc1ccccc1)c1c(C(=O)NC2C3CC4CC(C3)CC2C4)cnn1-c1ccccc1 (stereo not drawn) [Example 11, 5-(Methyl-phenethyl-amino)-1-phenyl-1H-pyrazole-4-carboxylic acid adamantan-2-ylamide] | 3.7 |
| CC1CN(c2c(C(=O)NC3C4CC5CC(C4)CC3C5)cnn2-c2ccccc2)CC(C)O1 (stereo not drawn) [Example 12, 5-(2,6-Dimethyl-morpholin-4-y1)-1-phenyl-1H-pyrazole-4-carboxylic acid adamantan-2-ylamide] | 3.7 |
| O=C(NC1C2CC3CC(C2)CC1C3)c1cnn(-c2ccccc2)c1N1CCCC1 (stereo not drawn) [Example 13, 1-Phenyl-5-pyrrolidin-1-y1-1H-pyrazole-4-carboxylic acid adamantan-2-ylamide] | 0.55 |
| O=C(NC1C2CC3CC(C2)CC1C3)c1cnn(-c2ccccc2)c1N1CCCCCC1 (stereo not drawn) [Example 14, 5-Azepan-1-y1-1-phenyl-1H-pyrazole-4-carboxylic acid adamantan-2-ylamide] | 1 |
| O=C(NC1C2CC3CC(C2)CC1C3)c1cnn(-c2ccccc2)c1N1CCOCC1 (stereo not drawn) [Example 15, 5-Morpholin-4-y1-1-phenyl-1H-pyrazole-4-carboxylic acid adamantan-2-ylamide] | 3 |
| O=C(NC1C2CC3CC(C2)CC1C3)c1cnn(-c2ccccc2)c1N1CCCC(CO)C1 (stereo not drawn) [Example 16, 5-(3-Hydroxymethyl-piperidin-1-y1)-1-phenyl-1H-pyrazole-4-carboxylic acid adamantan-2-ylamide] | 6.4 |
| O=C(NC1C2CC3CC(C2)CC1C3)c1cnn(-c2ccccc2)c1N1CCC[C@H]1CO (stereo partly drawn) [Example 17, 5-((S)-2-Hydroxymethyl-pyrrolidin-1-y1)-1-phenyl-1H-pyrazole-4-carboxylic acid adamantan-2-ylamide] | 42 |
| O=C(NC1C2CC3CC(C2)CC1C3)c1cnn(-c2ccccc2)c1N1CCC(O)CC1 (stereo not drawn) [Example 18, 5-(4-Hydroxy-piperidin-1-y1)-1-phenyl-1H-pyrazole-4-carboxylic acid adamantan-2-ylamide] | 3 |
| O=C(NC1C2CC3CC(C2)CC1C3)c1cnn(-c2ccccc2)c1N1CCCC(O)C1 (stereo not drawn) [Example 19, 5-(3-Hydroxy-piperidin-1-y1)-1-phenyl-1H-pyrazole-4-carboxylic acid adamantan-2-ylamide] | 9.2 |

Results, then the molecule that gave them:

| IC50 [nM] | Compound |
| --- | --- |
| 13 | O=C(NC1C2CC3CC(C2)CC1C3)c1cnn(-c2ccccc2)c1N1CCC(O)C1 (stereo not drawn) [Example 20, 5-(3-Hydroxy-pyrrolidin-1-y1)-1-phenyl-1H-pyrazole-4-carboxylic acid adamantan-2-ylamide] |
| 41 | CC(O)CNc1c(C(=O)NC2C3CC4CC(C3)CC2C4)cnn1-c1ccccc1 (stereo not drawn) [Example 21, 5-(2-Hydroxy-propylamino)-1-phenyl-1H-pyrazole-4-carboxylic acid adamantan-2-ylamide] |
| 21 | O=C(NC1C2CC3CC(C2)CC1C3)c1cnn(-c2ccccc2)c1NCCO (stereo not drawn) [Example 22, 5-(2-Hydroxy-ethylamino)-1-phenyl-1H-pyrazole-4-carboxylic acid adamantan-2-ylamide] |
| 55 | O=C(NC1C2CC3CC(C2)CC1C3)c1cnn(-c2ccccc2)c1NCCCO (stereo not drawn) [Example 23, 5-(3-Hydroxy-propylamino)-1-phenyl-1H-pyrazole-4-carboxylic acid adamantan-2-ylamide] |
| 7.5 | O=C(NC1C2CC3CC(C2)CC1C3)c1cnn(-c2ccccc2)c1NCCCCO (stereo not drawn) [Example 24, 5-(4-Hydroxy-butylamino)-1-phenyl-1H-pyrazole-4-carboxylic acid adamantan-2-ylamide] |
| 2 | O=C(NC1C2CC3CC(C2)CC1C3)c1cnn(-c2ccccc2)c1NCC1CCCO1 (stereo not drawn) [Example 25, 1-Phenyl-5-[(tetrahydro-furan-2-ylmethyl)-amino]-1H-pyrazole-4-carboxylic acid adamantan-2-ylamide] |
| 14 | CN(CCO)c1c(C(=O)NC2C3CC4CC(C3)CC2C4)cnn1-c1ccccc1 (stereo not drawn) [Example 26, 5-[(2-Hydroxy-ethyl)-methyl-amino]-1-phenyl-1H-pyrazole-4-carboxylic acid adamantan-2-ylamide] |
| 1.4 | COCCCNc1c(C(=O)NC2C3CC4CC(C3)CC2C4)cnn1-c1ccccc1 (stereo not drawn) [Example 27, 5-(3-Methoxy-propylamino)-1-phenyl-1H-pyrazole-4-carboxylic acid adamantan-2-ylamide] |
